What was measured:
oilseed rape = assay: Test C preemergence; type: in vivo, Brassica napus; conditions: for Plant response rating (scale of 0 to 100 where 0 is no effect and 100 is complete control): Oilseed Rape, preemergence; for Oilseed Rape plant response rating (0 to 100): Preemergence, visual rating after 13 to 15 d
Description: Seeds of plant species selected from blackgrass (Alopecurus myosuroides), ryegrass, Italian (Italian ryegrass, Lolium multiflorum), wheat (winter wheat, Triticum aestivum), galium (catchweed bedstraw, Galium aparine), corn (Zea mays), crabgrass, large (large crabgrass, Digitaria sanguinalis), foxtail, giant, (giant foxtail, Setaria faberii), johnsongrass (Sorghum halepense), lambsquarters (Chenopodium album), morningglory (Ipomoea coccinea), nutsedge, yellow (yellow nutsedge, Cyperus esculentus), pigweed (Amaranthus retroflexus), ragweed (common ragweed, Ambrosia elatior), soybean (Glycine max), barnyardgrass (Echinochloa crus-galli), oilseed rape (Brassica napus), waterhemp (common waterhemp, Amaranthus rudis), and velvetleaf (Abutilon theophrasti) were planted into a blend of loam soil and sand and treated preemergence with test chemicals formulated in a non-phytotoxic solvent mixture which included a surfactant. At the same time, plants selected from these crop and weed species and also chickweed (common chickweed, Stellaria media), oat, wild (wild oat, Avena fatua), and kochia (Kochia scoparia), were planted in pots containing Sunshine Redi-Earth® planting medium comprising spaghnum peat moss, vermiculite, starter nutrients and dolomitic limestone and treated with postemergence applications of test chemicals formulated in the same manner. Plants ranged in height from 2 to 18 cm (1- to 4-leaf stage) for postemergence treatments. […] A dash (-) response means no test result.

bluegrass = assay: Test D preemergence; type: in vivo, Poa annua; conditions: for Plant response rating (0 to 100), Bluegrass: 16 g ai/ha, 0 is no effect, 100 is complete control; for Plant response rating: Bluegrass: scale 0 to 100
Description: (§1) Seeds of plant species selected from bluegrass (annual bluegrass, Poa annua), blackgrass (Alopecurus myosuroides), canarygrass (Phalaris minor), chickweed (common chickweed, Stellaria media), galium (catchweed bedstraw, Galium aparine), bromegrass, down (downy bromegrass, Bromus tectorum), Russian thistle (Salsola kali), field poppy (Papaver rhoeas), field violet (Viola arvensis), foxtail, green (green foxtail, Setaria viridis), deadnettle (henbit deadnettle, Lamium amplexicaule), ryegrass, Ital. (Italian ryegrass, Lolium multiflorum), kochia (Kochia scoparia), lambsquarters (Chenopodium album), oilseed rape (Brassica napus), pigweed (Amaranthus retroflexus), chamomile (scentless chamomile, Matricaria inodora), speedwell (bird's-eye speedwell, Veronica persica), barley, spring (spring barley, Hordeum vulgare), wheat, spring (spring wheat, Triticum aestivum), buckwheat, wild (wild buckwheat, Polygonum convolvulus), wild mustard (Sinapis arvensis), oat, wild (wild oat, Avena fatua), radish, wild (wild radish, Raphanus raphanistrum), […]), barley, winter (winter barley, Hordeum vulgare), and wheat, winter (winter wheat, Triticum aestivum) were planted into a silt loam soil and treated preemergence with test chemicals formulated in a non-phytotoxic solvent mixture which included a surfactant. At the same time, these species were planted in pots containing Sunshine Redi-Earth® planting medium comprising spaghnum peat moss, vermiculite, starter nutrients and dolomitic limestone and treated with postemergence applications of the test chemicals formulated in the same manner. Plants ranged in height from 2 to 18 cm (1- to 4-leaf stage). Treated plants and controls were maintained in a controlled growth environment for 14 to 21 d after which time all species were compared to controls and visually evaluated. […] A dash (-) response means no test result.

galium = assay: Test D preemergence; type: in vivo, Galium aparine; conditions: for Plant response rating (0 to 100), Galium: 16 g ai/ha, 0 is no effect, 100 is complete control; for Plant response rating: Galium: scale 0 to 100
Description: as §1

bromegrass, down [1] = assay: Test D preemergence; type: in vivo, Bromus tectorum; conditions: for Plant response rating (0 to 100), Bromegrass, Down: 16 g ai/ha, 0 is no effect, 100 is complete control; for Plant response rating: Bromegrass, Down: scale 0 to 100
Description: as §1

Russian thistle = assay: Test D preemergence; type: in vivo, Salsola kali; conditions: for Plant response rating (0 to 100), Russian Thistle: 16 g ai/ha, 0 is no effect, 100 is complete control; for Plant response rating: Russian Thistle: scale 0 to 100
Description: as §1

lambsquarters = assay: Test D preemergence; type: in vivo, Chenopodium album; conditions: for Plant response rating (0 to 100), Lambsquarters: 16 g ai/ha, 0 is no effect, 100 is complete control; for Plant response rating: Lambsquarters: scale 0 to 100
Description: as §1

blackgrass = assay: Test D postemergence; type: in vivo, Alopecurus myosuroides; conditions: scale 0 to 100
Description: as §1

canarygrass = assay: Test D postemergence; type: in vivo, Phalaris minor; conditions: scale 0 to 100
Description: as §1

bromegrass, down [2] = assay: Test D postemergence; type: in vivo, Bromus tectorum; conditions: scale 0 to 100
Description: as §1

chamomile = assay: Test D postemergence; type: in vivo, Matricaria inodora; conditions: scale 0 to 100
Description: as §1

wheat, spring = assay: Test D postemergence; type: in vivo, Triticum aestivum; conditions: scale 0 to 100
Description: as §1

wheat, winter = assay: Test D postemergence; type: in vivo, Triticum aestivum; conditions: scale 0 to 100
Description: as §1

buckwheat, wild = assay: Test D postemergence; type: in vivo, Polygonum convolvulus; conditions: scale 0 to 100
Description: as §1

SMILES: FC(F)(F)COc1nc(-c2ccccc2)nn1Cc1ccnc(C(F)(F)F)c1 [Compound 24]
- Plant response rating (scale of 0 to 100 where 0 is no effect and 100 is complete control) (oilseed rape; 125 g ai/ha): 35
- Plant response rating (scale of 0 to 100 where 0 is no effect and 100 is complete control) (oilseed rape; 250 g ai/ha): 98
- Oilseed Rape plant response rating (0 to 100) (oilseed rape; 31 g ai/ha): 5
- Oilseed Rape plant response rating (0 to 100) (oilseed rape; 62 g ai/ha): 30
- Plant response rating (0 to 100), Bluegrass (bluegrass): 20
- Plant response rating: Bluegrass (bluegrass; 31 g ai/ha): 75
- Plant response rating: Bluegrass (bluegrass; 62 g ai/ha): 80
- Plant response rating: Bluegrass (bluegrass; 125 g ai/ha): 98
- Plant response rating (0 to 100), Galium (galium): 55
- Plant response rating: Galium (galium; 62 g ai/ha): 65
- Plant response rating: Galium (galium; 125 g ai/ha): 75
- Plant response rating (0 to 100), Bromegrass, Down (bromegrass, down [1]): 25
- Plant response rating: Bromegrass, Down (bromegrass, down [1]; 31 g ai/ha): 40
- Plant response rating: Bromegrass, Down (bromegrass, down [1]; 62 g ai/ha): 35
- Plant response rating: Bromegrass, Down (bromegrass, down [1]; 125 g ai/ha): 40
- Plant response rating (0 to 100), Russian Thistle (Russian thistle): 65
- Plant response rating: Russian Thistle (Russian thistle; 62 g ai/ha): 85
- Plant response rating: Russian Thistle (Russian thistle; 125 g ai/ha): 85
- Plant response rating (0 to 100), Lambsquarters (lambsquarters): 65
- Plant response rating: Lambsquarters (lambsquarters; 62 g ai/ha): 80
- Plant response rating: Lambsquarters (lambsquarters; 125 g ai/ha): 85
- Plant response rating: Blackgrass (blackgrass; 16 g ai/ha): 25
- Plant response rating: Blackgrass (blackgrass; 31 g ai/ha): 35
- Plant response rating: Blackgrass (blackgrass; 62 g ai/ha): 45
- Plant response rating: Blackgrass (blackgrass; 125 g ai/ha): 65
- Plant response rating: Canarygrass (canarygrass; 16 g ai/ha): 45
- Plant response rating: Canarygrass (canarygrass; 31 g ai/ha): 55
- Plant response rating: Canarygrass (canarygrass; 62 g ai/ha): 60
- Plant response rating: Canarygrass (canarygrass; 125 g ai/ha): 70
- Plant response rating: Bromegrass, Down (bromegrass, down [2]; 16 g ai/ha): 25
- Plant response rating: Bromegrass, Down (bromegrass, down [2]; 31 g ai/ha): 40
- Plant response rating: Bromegrass, Down (bromegrass, down [2]; 62 g ai/ha): 45
- Plant response rating: Bromegrass, Down (bromegrass, down [2]; 125 g ai/ha): 50
- Plant response rating: Chamomile (chamomile; 16 g ai/ha): 30
- Plant response rating: Chamomile (chamomile; 31 g ai/ha): 20
- Plant response rating: Chamomile (chamomile; 62 g ai/ha): 20
- Plant response rating: Chamomile (chamomile; 125 g ai/ha): 30
- Plant response rating: Wheat, Spring (wheat, spring; 16 g ai/ha): 15
- Plant response rating: Wheat, Spring (wheat, spring; 31 g ai/ha): 15
- Plant response rating: Wheat, Spring (wheat, spring; 62 g ai/ha): 25
- Plant response rating: Wheat, Spring (wheat, spring; 125 g ai/ha): 15
- Plant response rating: Wheat, Winter (wheat, winter; 16 g ai/ha): 15
- Plant response rating: Wheat, Winter (wheat, winter; 31 g ai/ha): 15
- Plant response rating: Wheat, Winter (wheat, winter; 62 g ai/ha): 20
- Plant response rating: Wheat, Winter (wheat, winter; 125 g ai/ha): 20
- Plant response rating: Buckwheat, Wild (buckwheat, wild; 16 g ai/ha): 50
- Plant response rating: Buckwheat, Wild (buckwheat, wild; 31 g ai/ha): 55
- Plant response rating: Buckwheat, Wild (buckwheat, wild; 62 g ai/ha): 60
- Plant response rating: Buckwheat, Wild (buckwheat, wild; 125 g ai/ha): 70

SMILES: COc1nc(-c2ccc(Cl)cc2)nn1Cc1ccnc(C(F)(F)F)c1 [Compound 28]
- Plant response rating (0 to 100), Bluegrass (bluegrass): 25
- Plant response rating: Bluegrass (bluegrass; 31 g ai/ha): 35
- Plant response rating: Bluegrass (bluegrass; 62 g ai/ha): 45
- Plant response rating: Bluegrass (bluegrass; 125 g ai/ha): 85
- Plant response rating (0 to 100), Galium (galium): 65
- Plant response rating: Galium (galium; 62 g ai/ha): 75
- Plant response rating: Galium (galium; 125 g ai/ha): 80
- Plant response rating (0 to 100), Bromegrass, Down (bromegrass, down [1]): 35
- Plant response rating: Bromegrass, Down (bromegrass, down [1]; 31 g ai/ha): 40
- Plant response rating: Bromegrass, Down (bromegrass, down [1]; 62 g ai/ha): 45
- Plant response rating: Bromegrass, Down (bromegrass, down [1]; 125 g ai/ha): 45
- Plant response rating (0 to 100), Russian Thistle (Russian thistle): 70
- Plant response rating: Russian Thistle (Russian thistle; 62 g ai/ha): 85
- Plant response rating: Russian Thistle (Russian thistle; 125 g ai/ha): 85
- Plant response rating (0 to 100), Lambsquarters (lambsquarters): 75
- Plant response rating: Lambsquarters (lambsquarters; 62 g ai/ha): 85
- Plant response rating: Lambsquarters (lambsquarters; 125 g ai/ha): 95
- Plant response rating: Blackgrass (blackgrass; 16 g ai/ha): 25
- Plant response rating: Blackgrass (blackgrass; 31 g ai/ha): 35
- Plant response rating: Blackgrass (blackgrass; 62 g ai/ha): 55
- Plant response rating: Blackgrass (blackgrass; 125 g ai/ha): 60
- Plant response rating: Canarygrass (canarygrass; 16 g ai/ha): 25
- Plant response rating: Canarygrass (canarygrass; 31 g ai/ha): 30
- Plant response rating: Canarygrass (canarygrass; 62 g ai/ha): 45
- Plant response rating: Canarygrass (canarygrass; 125 g ai/ha): 50
- Plant response rating: Bromegrass, Down (bromegrass, down [2]; 16 g ai/ha): 20
- Plant response rating: Bromegrass, Down (bromegrass, down [2]; 31 g ai/ha): 20
- Plant response rating: Bromegrass, Down (bromegrass, down [2]; 62 g ai/ha): 25
- Plant response rating: Bromegrass, Down (bromegrass, down [2]; 125 g ai/ha): 35
- Plant response rating: Chamomile (chamomile; 16 g ai/ha): 10
- Plant response rating: Chamomile (chamomile; 31 g ai/ha): 15
- Plant response rating: Chamomile (chamomile; 62 g ai/ha): 15
- Plant response rating: Chamomile (chamomile; 125 g ai/ha): 25
- Plant response rating: Wheat, Spring (wheat, spring; 16 g ai/ha): 10
- Plant response rating: Wheat, Spring (wheat, spring; 31 g ai/ha): 15
- Plant response rating: Wheat, Spring (wheat, spring; 62 g ai/ha): 20
- Plant response rating: Wheat, Spring (wheat, spring; 125 g ai/ha): 25
- Plant response rating: Wheat, Winter (wheat, winter; 16 g ai/ha): 15
- Plant response rating: Wheat, Winter (wheat, winter; 31 g ai/ha): 20
- Plant response rating: Wheat, Winter (wheat, winter; 62 g ai/ha): 25
- Plant response rating: Wheat, Winter (wheat, winter; 125 g ai/ha): 20
- Plant response rating: Buckwheat, Wild (buckwheat, wild; 16 g ai/ha): 60
- Plant response rating: Buckwheat, Wild (buckwheat, wild; 31 g ai/ha): 65
- Plant response rating: Buckwheat, Wild (buckwheat, wild; 62 g ai/ha): 75
- Plant response rating: Buckwheat, Wild (buckwheat, wild; 125 g ai/ha): 95

Source: US10681909B2, “Herbicidal triazoles” (FMC Corporation, priority 2014, dated 2020)
